Results as given in paper PMC9032987, “Cytotoxic Alkylynols of the Sponge Cribrochalina vasculum: Structure, Synthetic Analogs and SAR Studies” (Marine Drugs, 2022).
Read-outs that look alike come from different tables or passages of the source.

Assays:
[1] = test system: WI-38 diploid lung fibroblasts; design: method as in PMID 25319389; details: 72 h; cited from earlier work
NSCLC U-1810 cells [2] = test system: NSCLC U-1810 cells; design: method as in PMID 25319389; details: 72 h; cited from earlier work
NSCLC U-1810 cells [3] = experiment: MTT cytotoxicity assay in NSCLC U-1810 cells; format: cell-based, human; details: for Selectivity NSCLC cells (U-1810) vs. diploid fibroblasts (WI-38): calculated at IC50 (WI-38 IC50 / U-1810 IC50)
Experimental: (§1) Cytotoxicity structure-activity relationship analyses of compounds in NSCLC tumor cells and fibroblasts. Stock solutions (10 mg/mL) of the compounds to be tested were made in DMSO and further diluted with cell culture media prior to structure-activity relationship (SAR) screening as earlier described. To assess anti-tumor activity, the large cell lung carcinoma cell line NSCLC U-1810 (kind gift from Uppsala University) and diploid lung fibroblasts WI-38 [30] were used. U-1810 cells were propagated in RPMI-1640 medium (Sigma-Aldrich, St. Louis, […], USA) supplemented with FBS (10% HyClone) and L-glutamine (2 mmol/L, Invitrogen) while WI-38 fibroblasts were cultured in Eagle’s Minimum Essential Medium (Sigma-Aldrich) with 15% FBS and L-glutamine. For SAR assessment the cytotoxic assay 3-(4,5-dimethylthiazol-2-yl)-2,5 diphenyltetrazolium bromide (MTT) was applied. Profiling of U-1810 cells was carried out at 80% confluency (obtained by seeding 5000 cells/well in a 96-well plate for 24 h prior to treatment) and of WI-38 at 100% confluency (obtained by seeding 18,000 cells/well in a 96-well plate for 24 h prior to compound addition), the later to mimic the behavior of fibroblasts in the human body where they are non-dividing. For SAR evaluation, different concentrations of the compounds were added to fresh media while untreated cells were treated with DMSO corresponding to the amount applied when testing the highest concentration of the different compounds. The cytotoxicity of the compounds was assessed at 72 h post addition to cells by adding MTT solution (0.5 mg/mL, Sigma-Aldrich, 4 h at 37 °C) and dissolving the resulting formazan crystals in an SDS-containing solution (10% SDS and 0.01 mol/L HCl). Absorbance was quantified at 595 nm and the compound-induced cytotoxicity was calculated relative to that observed in DMSO-treated cells. The IC50 values were deduced from survival plots drawn in Graph Pad PRISM software vers.6 and for some of the compounds extrapolated as indicated in footnotes to Table 1.

[4] = test system: WI-38 diploid lung fibroblasts; experiment: MTT cytotoxicity assay in diploid lung fibroblasts WI-38; format: cell-based, human; details: Homo sapiens, WI-38, 72 h, MTT, 72 h post addition, confluent cells, estimated from cell viability curve
Experimental: as §1

[5] = as above; format: cell-based, human; details: human, WI-38 diploid lung fibroblasts; WI-38, at 113 µM, 72 h; read-out: cell viability
Experimental: as §1

C#C[C@H](O)/C=C/CCCCCCCCC(C)CCCCCCCC (stereo partly drawn) [Compound 23, (3R)-14-Methyldocos-(4E)-en-1-yn-3-ol]
IC50 [1]: 9.7 µM
IC50 (NSCLC U-1810 cells [2]): 0.8 µM
cytotoxic activity in NSCLC U-1810 cells (in words) (NSCLC U-1810 cells [3]): equally active
Selectivity NSCLC cells (U-1810) vs. diploid fibroblasts (WI-38) (NSCLC U-1810 cells [3]): 12.1

C#C[C@H](CCCCCCCCCCCCCCC)OC(=O)[C@](OC)(c1ccccc1)C(F)(F)F [S,R-34, (R)-((S)-octadec-1-yn-3-yl)-3,3,3-trifluoro-2-methoxy-2-phenylpropanoate]
IC50 [4]: > 113 µM
viability at 72 h, 113 µM [5]: ~100%
IC50 (NSCLC U-1810 cells [3]; Homo sapiens, U-1810, 72 h, MTT, 72 h post addition, estimated from cell viability curve): > 113 µM
viability at 113 µM (NSCLC U-1810 cells [3]; Homo sapiens, U-1810, at 113 µM, 72 h, read-out: cell viability): ~96%

C#C[C@H](O)/C=C/CCCCCCCCCCCCCCC [scal-18, (3R)-Icos-(4E)-en-1-yn-3-ol]
IC50 [1]: 7.3 µM
IC50 (NSCLC U-1810 cells [2]): 0.5 µM
cytotoxic activity in NSCLC U-1810 cells (in words) (NSCLC U-1810 cells [3]): equally active
Selectivity NSCLC cells (U-1810) vs. diploid fibroblasts (WI-38) (NSCLC U-1810 cells [3]): 14.6
